# Data taken from patent publication US20250312365A1, “METHODS FOR INHIBITION OF SQUAMOUS CARCINOMA CELLS USING CERAMIDE MODULATORS” (The Trustees of Indiana University, priority 2024, published 2025).
# Entries after “also recorded” stand apart in the source; their conditions may differ.
# Legend:
# [1] = tested on: ACER2; assay: ACER2 mRNA expression in OECM1 cells; assay type: cell-based, human; conditions: 1 μg/ml, compared to sham control
# Excerpt: (§1) Exemplary ceramidase genes, the expression of which can be measured to determine upregulation, include but are not limited to ASAH1, ACER2, and ACER3. A determination of ceramidase gene expression can be made according to methods available to one of skill in the art. For example, Yamada et al., J Cell Mol Med. 2023 May;27(9):1290-1295 and Kyriakou et al., Int. J. Mol. Sci. 2020, 21(5):1607 describes measuring the mRNA levels of ceramidases by RNA extraction and RT-PCR.
# (§2) To test this hypothesis, it was first determined whether artificially elevated intracellular concentration of ceramide species affect the expression of acid/ASAH1, neutral/ASAH2, and alkaline1-3/ACER1-3 ceramidases in oral squamous cell carcinoma cells using C6-ceramide. Applicant previously reported that C6-ceramide serves as a positive control for PGDHC-mediated inflammation (Kanzaki et al., Biochim Biophys Acta Mol Cell Biol Lipids. 2017 May;1862(5):452-462) and promotes the intracellular accumulation of ceramide in cancer cells. See, e.g., Zhang et al., Front Plant Sci. 2020 Feb. 26:11:145, Zhai et al., Biochem Biophys Res Commun. 2015 December;468(1-2):274-80, Wilhelm et al., Cancers (Basel). 2021 Jan. 13;13(2):270, and Chapman et al., Biochem Pharmacol. 2010 Aug. 1;80(3):308-15.
# (§3) Next, the effect of PGDHC on ceramidase gene expression was determined. OECM1 and SCC4 cells were exposed to 0.1 or 1 μg/ml of PGDHC. The mRNA levels of ceramidases were then measured following PGDHC exposure. PGDHC inhibited the expression of ASAH1 and ACER2 mRNAs in OECM1 (FIG. 8). […] See, e.g., Vijayan et al., J Adv Res. 2023 Dec. 21:S2090-1232(23)00403-4, Doan et al., Oncotarget. 2017 Nov. 7;8(68):112662-112674., Lai et al., Sci Rep. 2021 May 27;11(1):11221, Liu et al., Cancer Sci. 2020 July;111(7):2259-2274., and Liu et al., Front Genet. 2023 Mar. 1:14:1148437.
# (§4) To elucidate the effects of C16:0 and dh-C16:0 on oral squamous cell carcinoma, the ability of exogenous C16:0 and dh-C16:0 to modulate proliferation and ceramidase expression in OECM1 cells was determined. […] In contrast, no effect of C16:0 on ASAH1 and ACER2 mRNA expressions.
# [2] = tested on: ASAH1; assay: ASAH1 (acid ceramidase) mRNA expression in OECM1 cells; assay type: cell-based, human; conditions: for expression of ASAH1 in OECM1 cells: 1 μg/ml, compared to sham control
# Excerpt: as §1, §2, §3, §4
# (§5) We evaluated the effect of a15:0-i15:0 phosphoethanolamine phospholipid (FIG. 1D), isolated from the gut bacteria Akkermansia muciniphila on OSCC cells.
# [3] = tested on: ASAH1; conditions: Yamada et al. 2023; cited from earlier work
# [4] = tested on: human gingival squamous carcinoma cells (OECM1); conditions: Yamada et al. 2023; cited from earlier work
# [5] = tested on: ceramide and dihydroceramide in OECM1 cells; conditions: Yamada et al. 2023; cited from earlier work
# [6] = tested on: human gingival squamous carcinoma cells (OECM1); assay: Cell viability/proliferation assay (WST-1) in OECM1 cells; assay type: cell-based; conditions: for OECM1 viability / proliferation: 0.1, 1, 2 and 5 μg/ml, normalized to control
# Excerpt: (§6) In specific examples, colorimetric assays can be used to assess cellular viability and proliferation of cell cultures, such as MTT, WST-1, and resazurin assays. See, e.g., Präbst et al., Methods Mol Biol. 2017:1601:1-17.
# (§7) Various cell lines were exposed to PGDHC, including human gingival squamous carcinoma cells (OECM1), tongue squamous carcinoma cells (SCC4, SCC9), and healthy human gingival epithelial control cells (OBA9) in vitro.
# as §4
# (§8) LCL521 is a dose-dependent acid ceramidase inhibitor. Comparison of the concentration-dependent effects of an acid ceramidase inhibitor, LCL521 (MedChemExpress®), and the bacterial-isolated a15:0-15:0PE phospholipid on the viability of healthy human epithelial, OBA9, and oral squamous cancer cell lines, OECM1 and SCC9, in vitro was evaluated. […] (FIG. 15A). […] (FIG. 15B).
# [7] = tested on: ACER3; assay: ACER3 mRNA expression in OECM1 cells; assay type: cell-based, human; conditions: 1 μg/ml, compared to sham control
# Excerpt: as §1
# as §2, with “13;13(2):270, and Chapman et al., Biochem Pharmacol. 2010 Aug. 1;80(3):308-15.” left out
# To elucidate the effects of C16:0 and dh-C16:0 on oral squamous cell carcinoma, the ability of exogenous C16:0 and dh-C16:0 to modulate proliferation and ceramidase expression in OECM1 cells was determined. […]
# [8] = tested on: tongue squamous carcinoma cells (SCC9); assay: Cell viability/proliferation assay (WST-1) in SCC9 cells; assay type: cell-based, human
# Excerpt: as §6, §7, §8
# [9] = tested on: healthy human gingival epithelial control cells (OBA9); assay: Cell viability/proliferation assay (WST-1) in healthy OBA9 cells; assay type: cell-based
# Excerpt: as §6, §7, §8
# [10] = tested on: ASAH1; assay: ASAH1 mRNA expression in SCC9 cells; assay type: cell-based, human; conditions: different concentrations of a15:0-i15:0PE
# Excerpt: as §5
# [11] = tested on: SCC9 cells; assay: Untargeted metabolomic pathway analysis (LC/MS) in SCC9 cells; assay type: cell-based, human; conditions: 1 μg/ml for 6 h
# Excerpt: The plots in FIGS. 16A and 16B display the enriched pathways identified in the analysis, with their corresponding significance levels represented on the x-axis. The significance threshold (p<0.05) is denoted by the dashed line. […] Additionally, the color of the dots represents the enrichment, which indicates the extent to which the metabolites in the pathway were clustered amongst the compounds with the most positive fold-changes (positive enrichments), the most negative fold-changes (negative enrichments), or uniformly distributed across high and low fold-change compounds (enrichment values near 0.0). […] Polar and lipid metabolites were analyzed with hydrophilic interaction chromatography (HILIC/MS) and liquid chromatography (LC/MS), respectively. Mass spectrometry analysis was completed with a mass range of 67-1500 Da with 1 scan/sec and a mass resolution of 120,000 in both positive and negative ionization mode. The MS/MS mass-spectrometry data were acquired in a data-dependent iterative fashion with a 1.3 m/z isolation window. Based upon this metabolomic analysis, phosphoglycerol dihydroceramide (PGDHC) isolated from Porphyromonas gingivalis inhibits metabolomic pathways essential for cell survival in oral squamous cell carcinoma cells (OSCC). […]
# SCC9 were exposed to a15:0-i15:0PE (1 μg/ml) for 6 h in vitro. […] The significance threshold (p<0.05) is denoted by the grey dashed line. […] Additionally, the color of the dots represents the enrichment, which indicates the extent to which the metabolites in the pathway were clustered amongst the compounds with the most positive fold-changes (positive enrichments), the most negative fold-changes (negative enrichments), or uniformly distributed across high and low fold-change compounds (enrichment values near 0.0).
# [12] = tested on: acid ceramidase; assay: Acid ceramidase level by confocal microscopy in SCC9 cells; assay type: cell-based, human
# Excerpt: as §5
# [13] = at concentrations lower than 1 μg/mL
compound,measurement,setting,value
"CCCCCCCCCCCCC/C=C/[C@@H](O)[C@H](CO)NC(=O)CCCCCCCCCCCCCCC [C16:0, C16:0 ceramide]",expression of ACER2 in OECM1 cells,[1],no effect
same,expression of ASAH1 in OECM1 cells,[2],no effect
phosphoethanolamine dihydroceramide [PEDHC],ASAH1 (acid ceramidase) expression in OECM1 cells,[3],inhibition; also recorded: downregulation
same,proliferation of OECM1 cells,[4],inhibited the proliferation
same,accumulation of antiproliferative ceramides in OECM1 cells,[5],elevated accumulation
CCCCCCCCCCCCC/C=C/[C@@H](O)[C@H](CO)NC(=O)CCCCC [C6-ceramide],OECM1 viability / proliferation,[6],inhibited OECM1 viability in a concentration-dependent manner
same,expression of ACER2 in OECM1 cells,[1],inhibited expression
same,expression of ASAH1 in OECM1 cells,[2],inhibited expression
same,expression of ACER3 in OECM1 cells,[7],inhibited expression
"CCCCCCCCCCCCCC(=O)N[C@H](COC(=O)CN(C)C)[C@H](OC(=O)CN(C)C)c1ccc([N+](=O)[O-])cc1 [LCL521, reference compound]",inhibition of viability of OECM1,[6]; 10 μM,20%
same,inhibition of viability of SCC9,[8]; 10 μM,20%
same,inhibition of viability of OBA9,[9]; 10 μM,over 50%
"CCCCCCCCCCCCCCCC(=O)N[C@@H](CO)[C@H](O)CCCCCCCCCCCCCCC [dh-C16:0, Dihydroceramide C16:0]",OECM1 viability / proliferation,[6],significantly inhibited OECM1 cells proliferation in a concentration-dependent manner
same,expression of ACER2 in OECM1 cells,[1],dramatically inhibits
same,expression of ASAH1 in OECM1 cells,[2],dramatically inhibits
same,expression of ACER3 in OECM1 cells,[7],dramatically inhibits
"CC[C@H](C)CCCCCCCCCCC(=O)OC[C@H](COP(=O)(O)OCCN)OC(=O)CCCCCCCCCCCC(C)C [a15:0-15:0PE, 1-(12S-methylmyristoyl)-2-(13-methylmyristoyl)-sn-glycero-3-phosphoethanolamine]",viability of OECM1 cells,[6]; [13],significantly inhibited
same,expression patterns of ASAH1 mRNA in SCC9,[10],dose-dependent decrease in expression
same,viability of SCC9 cells,[8]; [13],significantly inhibited
same,healthy OBA9 cell viability,"[9]; concentrations of 0.1, 1.0 and 2.0 μM (FIG. 15B)",No significant effect
same,amino fatty acid metabolism in SCC9 cells,[11],inhibits
same,arginine and proline metabolism in SCC9 cells,[11],inhibits
same,vitamin B6 metabolism in SCC9 cells,[11],inhibits
same,amino fatty acid metabolism in SCC9 cells,[11]; listed as a15:0-i15:0PE,diminished accumulation
same,arginine and proline metabolism in SCC9 cells,[11]; listed as a15:0-i15:0PE,diminished accumulation
same,vitamin B6 metabolism in SCC9 cells,[11]; listed as a15:0-i15:0PE,diminished accumulation
same,"levels of acid ceramidase in SCC9 cells (confocal, corrected total cell fluorescence)",[12],decreased expression
same,expression patterns of ASAH1 mRNA in OECM1,[2]; different concentrations of a15:0-i15:0PE,dose-dependent decrease in expression
